{"source": "patent US20240263138A1", "about": "“METHODS FOR PREPARING A FOOD INGREDIENT AND COMPOSITIONS PRODUCED THEREBY” (SuperMeat the Essence of Meat Ltd., priority 2021, published 2024)", "test_system": "SM ES cells", "test": "Direct differentiation of SM ES cells cultured with oleic acid", "assay_type": "cell-based, chicken", "conditions": "culturing in the presence of 300 uM, direct differentiation protocol", "method": "As used herein “direct differentiation protocol” refers to the addition of FAs at high concentrations to a stem cell culture e.g., pluripotent stem cells, (above 25 uM or above 100 uM, when serum is absent or present in the culture) stem cells in order to allow the cells to accumulate fat. […] Next step was to test the ability to control the fatty acid profile of SM ES cells by growing the cells in the presence of certain or several fatty acids (FAs), dependent on the selected edible species."}
{"molecule": "CCCCCCCC/C=C\\CCCCCCCC(=O)O", "note": "[oleic acid]", "values": [{"measurement": "proportion of oleic acid (OA) within cells", "result": "double"}]}
